Measured values published in ChEMBL document CHEMBL5528017, “Design and synthesis of dual BRD4/Src inhibitors for treatment of triple-negative breast cancer” (Eur J Med Chem, 2024).
Calls of active or inactive are those of the source. No cut-off for these calls is given here.

Legend:
MDA-MB-231 [1] = assay: Induction of apoptosis in human MDA-MB-231 cells assessed as increase in cleaved PARP-1 expression at 0.5 uM incubated for 36 hrs by western blot analysis; format: functional, cell-based
[2] = Toxicity against NOD-SCID mouse xenografted with human MDA-MB-231 cells assessed as effect on body weight at 15 mg/kg, ip administered 5 days per week for 27 days; format: organism-based; conditions: in vivo, 648 h, time 27 day
MCF7 = assay: Antiproliferative activity against human MCF7 cells assessed as inhibition of cell viability incubated for 3 to 4 days by CCK8 assay; format: functional, cell-based; conditions: time 3-4 day
MDA-MB-231 [3] = assay: Induction of cell cycle arrest in human MDA-MB-231 cells assessed as proportion of cells at G1 phase at 0.1 uM incubated for 24 hrs by propidium iodide staining based flow cytometry (reference value: 59.5%); format: functional
A549 = assay: Antiproliferative activity against human A549 cells assessed as inhibition of cell viability incubated for 3 to 4 days by CCK8 assay; format: functional, cell-based; conditions: time 3-4 day
MDA-MB-231 [4] = assay: Induction of apoptosis in human MDA-MB-231 cells assessed as proportion of early apoptotic cells at 0.5 uM incubated for 36 hrs by AnnexinV-FITC/PI staining based flow cytometry (reference value: 5.05%); format: functional
MDA-MB-231 [5] = assay: Induction of apoptosis in human MDA-MB-231 cells assessed as proportion of necrotic cells at 0.5 uM incubated for 36 hrs by AnnexinV-FITC/PI staining based flow cytometry (reference value: 0%); format: functional
MDA-MB-231 [6] = assay: Induction of cell cycle arrest in human MDA-MB-231 cells assessed as proportion of cells at G2 phase at 0.1 uM incubated for 24 hrs by propidium iodide staining based flow cytometry (reference value: 11.6%); format: functional
MDA-MB-231 [7] = assay: Induction of apoptosis in human MDA-MB-231 cells assessed as proportion of necrotic cells at 1 uM incubated for 36 hrs by AnnexinV-FITC/PI staining based flow cytometry (reference value: 0%); format: functional
MDA-MB-231 [8] = assay: Antitumor activity against human MDA-MB-231 cells xenografted in NOD-SCID mouse assessed as inhibition of tumor growth at 15 mg/kg, ip administered 5 days per week for 27 days; format: functional; conditions: MDA-MB-231, 648 h, time 27 day, read-out: TGI
MDA-MB-231 [9] = assay: Induction of cell cycle arrest in human MDA-MB-231 cells assessed as proportion of cells at S phase at 0.1 uM incubated for 24 hrs by propidium iodide staining based flow cytometry (reference value: 28.2%); format: functional
MDA-MB-231 [10] = assay: Induction of apoptosis in human MDA-MB-231 cells assessed as increase in cleaved caspase-9 expression at 0.5 uM incubated for 36 hrs by western blot analysis; format: functional, cell-based
MDA-MB-231 [11] = assay: cells; conditions: Homo sapiens, MDA-MB-231, 72 h
Description: Antiproliferative activity against human MDA-MB-231 cells assessed as inhibition of cell viability incubated for 72 hrs by CCK8 assay

MDA-MB-231 [12] = assay: Induction of apoptosis in human MDA-MB-231 cells assessed as proportion of late apoptotic cells at 0.5 uM incubated for 36 hrs by AnnexinV-FITC/PI staining based flow cytometry (reference value: […]%); format: functional
MDA-MB-231 [13] = assay: Induction of cell cycle arrest in human MDA-MB-231 cells assessed as proportion of cells at G2 phase at 0.2 uM incubated for 24 hrs by propidium iodide staining based flow cytometry (reference value: 11.6%); format: functional
MDA-MB-231 [14] = assay: Induction of cell cycle arrest in human MDA-MB-231 cells assessed as proportion of cells at S phase at 0.2 uM incubated for 24 hrs by propidium iodide staining based flow cytometry (reference value: 28.2%); format: functional
MDA-MB-231 [15] = assay: Antitumor activity against human MDA-MB-231 cells xenografted in NOD-SCID mouse assessed as inhibition of tumor growth at 20 mg/kg, ip qd for 10 days; format: functional; conditions: MDA-MB-231, 240 h, time 10 day, read-out: TGI
MDA-MB-231 [16] = assay: Induction of cell cycle arrest in human MDA-MB-231 cells assessed as increase in p21 expression at 0.1 to 0.2 uM incubated for 24 hrs by western blot analysis; format: functional, cell-based; conditions: dose 0.1-0.2 µM
[17] = Toxicity against NOD-SCID mouse xenografted with human MDA-MB-231 cells assessed as adverse effects at 15 mg/kg, ip administered 5 days per week for 27 days; format: organism-based; conditions: in vivo, 648 h, time 27 day
MDA-MB-231 [18] = assay: Induction of apoptosis in human MDA-MB-231 cells assessed as proportion of viable cells at 0.5 uM incubated for 36 hrs by AnnexinV-FITC/PI staining based flow cytometry (reference value: 93.6%); format: functional
MDA-MB-231 [19] = assay: Induction of apoptosis in human MDA-MB-231 cells assessed as proportion of early apoptotic cells at 1 uM incubated for 36 hrs by AnnexinV-FITC/PI staining based flow cytometry (reference value: 5.05%); format: functional
MDA-MB-231 [20] = assay: Induction of apoptosis in human MDA-MB-231 cells assessed as increase in cleaved caspase-3 expression at 0.5 uM incubated for 36 hrs by western blot analysis; format: functional, cell-based
CWR22R = assay: Antiproliferative activity against human 22Rv1 cells assessed as inhibition of cell viability incubated for 3 to 4 days by CCK8 assay; format: functional, cell-based; conditions: time 3-4 day
MDA-MB-231 [21] = assay: Induction of cell cycle arrest in human MDA-MB-231 cells assessed as proportion of cells at G1 phase at 0.2 uM incubated for 24 hrs by propidium iodide staining based flow cytometry (reference value: 59.5%); format: functional
MDA-MB-231 [22] = assay: Induction of apoptosis in human MDA-MB-231 cells assessed as proportion of late apoptotic cells at 1 uM incubated for 36 hrs by AnnexinV-FITC/PI staining based flow cytometry (reference value: […]%); format: functional
MDA-MB-231 [23] = assay: Induction of apoptosis in human MDA-MB-231 cells assessed as proportion of viable cells at 1 uM incubated for 36 hrs by AnnexinV-FITC/PI staining based flow cytometry (reference value: 93.6%); format: functional
MDA-MB-231 [24] = assay: Induction of cell cycle arrest in human MDA-MB-231 cells assessed as downregulation of cyclin B1 expression at 0.1 to 0.2 uM incubated for 24 hrs by western blot analysis; format: functional, cell-based; conditions: dose 0.1-0.2 µM
MDA-MB-231 [25] = assay: Antitumor activity against human MDA-MB-231 cells xenografted in NOD-SCID mouse assessed as reduction in tumor weight at 15 mg/kg, ip administered 5 days per week for 27 days; format: functional; conditions: MDA-MB-231, 648 h, time 27 day
MDA-MB-231 [26] = assay: Induction of cell cycle arrest in human MDA-MB-231 cells assessed as decrease in cyclin E1 expression at 0.1 to 0.2 uM incubated for 24 hrs by western blot analysis; format: functional, cell-based; conditions: dose 0.1-0.2 µM

With `Cc1nc(Nc2ncc(C(=O)Nc3c(C)cccc3Cl)s2)cc(N2CCN(CCOC(=O)C(C)NC(=O)C[C@@H]3N=C(c4ccc(Cl)cc4)c4c(sc(C)c4C)-n4c(C)nnc43)CC2)n1` (some centres undefined) the Activity (MDA-MB-231 [1]) was “Active”, the Activity [2] was “Non-Toxic” and the Activity (MCF7) was “Active”. For the same compound, the Activity (MDA-MB-231 [3]) was 80.4%, the Activity (A549) was “Active” and the Activity (MDA-MB-231 [4]) was 22.9%. It also gave an Activity (MDA-MB-231 [5]) of 0%, an Activity (MDA-MB-231 [6]) of 6.47% and an Activity (MDA-MB-231 [7]) of 0%. For the same compound, the inhibition in vivo at 15 mg/kg (MDA-MB-231 [8]) was 70.7%, the Activity (MDA-MB-231 [9]) was 12.8% and the Activity (MDA-MB-231 [10]) was “Active”. It also gave an IC50 (MDA-MB-231 [11]) of 34 nM, an Activity (MDA-MB-231 [12]) of 6.01% and an Activity (MDA-MB-231 [13]) of 4.96%. For the same compound, the Activity (MDA-MB-231 [14]) was 10.1%, the inhibition in vivo at 20 mg/kg (MDA-MB-231 [15]) was 75.4% and the Activity (MDA-MB-231 [16]) was “Active”. The Activity [17] was “Non-Toxic”, the Activity (MDA-MB-231 [18]) was 71.1% and the Activity (MDA-MB-231 [19]) was 16.5%. For the same compound, the Activity (MDA-MB-231 [20]) was “Active”, the Activity (CWR22R) was “Active” and the Activity (MDA-MB-231 [21]) was 84.4%. For the same compound, the Activity (MDA-MB-231 [22]) was 7.14%, the Activity (MDA-MB-231 [23]) was 76.3% and the Activity (MDA-MB-231 [24]) was “Active”. For the same compound, the inhibition in vivo at 15 mg/kg (MDA-MB-231 [25]) was 66.1% and the Activity (MDA-MB-231 [26]) was “Active”.
